According to patent US20170291958A1, “Compositions and Methods For the Modulation of Ras Proteins” (NEW YORK UNIVERSITY, priority 2016, published 2017):
“Also recorded” adds a separate entry of the source.

How the values were obtained:
Type in all cases: cell-based
[1] = test system: KRAS sumoylation; assay: KRAS sumoylation in transfected MiaPaCa-2 cells (Flag immunoprecipitation, HA blot); conditions: MiaPaCa-2 cells transfected with Flag-KRAS and HA-SUMO3, treated 18 h (FIG. 2A)
Experimental: FIGS. 2A-2E. Lysine 42 is a primary site for sumoylation. (FIG. 2A) MiaPaCa-2 cells were transfected with Flag-KRAS and HA-SUMO3 expression constructs for 24 h and then treated with or without 2-D08 for 18 h. Cells were then lysed and equal amounts of the lysates were immunoprecipitated with the anti-Flag antibody. Flag precipitates, along with lysate inputs, were blotted with antibodies to HA and Flag, respectively. (FIG. 2B) HEK293T cells were co-transfected with plasmid constructs expressing Flag-KRAS, HA-SUMO3, and SENP isoforms as indicated. Equal amounts of protein lysates were immunoprecipitated with the anti-Flag antibody. Flag immunoprecipitates were immunoblotted with antibodies to Flag or HA. […]
Total cell lysates were prepared in a buffer [50 mM Tris-HCl (pH 7.5), 150 mM NaCl, 1% IGEPAL, 0.1% SDS, and 0.5% sodium deoxycholate] supplemented with a mixture of protease and phosphatase inhibitors. […] Protein concentrations were measured using the bicinchoninic acid protein assay reagent kit (Pierce Chemical Co). […]
HEK-293T cells were lysed in TBSN buffer [20 mM Tris-Cl (pH 8.0), 150 mM NaCl, 0.5% NP-40, 5 mM EGTA, 1.5 mM EDTA, 0.5 mM Na3VO4, and […]-Glycerol phosphate]. […] After incubation, proteins bound to each resin were washed extensively with the binding buffer, eluted in the SDS-PAGE sample buffer, and analyzed by SDSPAGE.

[2] = test system: BxPC-3 cells; assay: Wound-healing assay, BxPC-3 cells; conditions: BxPC-3 cells that harbor no KRAS mutation, various concentrations, 18 h (FIG. 7B, 7D)
Experimental: (§1) FIGS. 7A-7E. SUMO inhibitor blocks migration of pancreatic cancer cells with KRASV12 mutation. (FIG. 7A) MiaPaCa-2 cells transfected with various KRAS expression constructs or the vector as indicated for 24 h. A GFP-expressing plasmid was used for co-transfection. Transfected cells were then used for wound-healing assays as described in Methods. Representative images of the assay and GFP expression are shown. (FIG. 7B) Both BxPC-3 and MiaPaCa-2 cells were employed for wound-healing assays. Cells with open scratches were treated with various concentrations of 2-D08 for 18 h. Representative images of cells before and after recovery in the presence of 2-D08 for 18 h are shown. (FIG. 7C & FIG. 7D) Data were summarized from experiments as shown in A and B, respectively. (FIG. 7E) MiaPaCa-2 cells treated with or without 2-D08 were lysed and equal amounts of cell lysates were blotted with antibodies to N-Cadherin, ZEB1/TCF8, ZO-1, PARP-1 and B-actin, respectively.
(§2) RAS proteins were the first, and remain the best-studied, oncoproteins. However, to date no compounds that target RAS have been approved for clinic applications for cancer treatment. As a proof-of-principle study, we next determined whether 2-D08 that blocks RAS sumoylation (FIG. 2A) would suppress tumor cell migration in a KRAS-dependent manner. […]

[3] = test system: ZEB1/TCF8, ZO-1 expression in MiaPaCa-2 cells; assay: Immunoblot of migration/EMT gene products in MiaPaCa-2 cells
Experimental: as §1
RAS proteins were the first, and remain the best-studied, oncoproteins. However, to date no compounds that target RAS have been approved for clinic applications for cancer treatment. As a proof-of-principle study, we next determined whether 2-D08 that blocks RAS sumoylation (FIG. 2A) would suppress tumor cell migration in a KRAS-dependent manner.
Total cell lysates were prepared in a buffer [50 mM Tris-HCl (pH 7.5), 150 mM NaCl, 1% IGEPAL, 0.1% SDS, and 0.5% sodium deoxycholate] supplemented with a mixture of protease and phosphatase inhibitors. HEK293T Tet-on cells were engineered to express KRASV12 or KRASV12/42R mutants in the presence of doxycycline. At various times post addition of doxycycline, cells were collected and lysed in the same buffer as above. Protein concentrations were measured using the bicinchoninic acid protein assay reagent kit (Pierce Chemical Co). Equal amounts of protein lysates from various samples were used for SDS-PAGE analysis followed by immunoblotting. […]

[4] = test system: MiaPaCa-2 cells; assay: Wound-healing assay, MiaPaCa-2 cells; conditions: MiaPaCa-2 cells (KRASV12), various concentrations, 18 h (FIG. 7B, 7D)
Experimental: as §1, §2

[5] = MiaPaCa-2 cells, immunoblot (FIG. 7E)

O=c1cc(-c2ccc(O)c(O)c2O)oc2ccccc12 [2-D08, 2-(2,3,4-Trihydroxyphenyl)-4H-chromen-4-one]
KRAS sumoylation [1]: blocked KRAS sumoylation in a concentration-dependent manner | cell migration (wound healing) [2]: did not have an effect on inhibiting cell migration | expression of ZEB1/TCF8 [3, 5]: suppressed expression of ZEB1/TCF8 | expression of ZO-1 [3, 5]: promoted expression of ZO-1 | expression of genes involved in EMT ([3]; pancreatic cancer cells with KRASV12 (FIG. 7)): suppresses expression of genes involved in EMT | cell migration (wound healing) [4]: blocked MiaPaCa-2 cell migration in a concentration-dependent manner; also recorded: reduces migration rate of pancreatic cancer cells with KRASV12 in a concentration-dependent manner
